Here are results for 8 compounds from article PMC10740580, “Benzothiazole-Phthalimide Hybrids as Anti-Breast Cancer and Antimicrobial Agents” (Antibiotics, 2023).

Converted amounts (≈) assume the structure as drawn.

One experiment concerns MCF-7 cells. Nature of the experiment: MTT cell viability assay, MCF-7. It counts as cell-based, human. As to conditions: mean ± SD; for IC50: Homo sapiens, MCF7, 72 h exposure. Here is the method: The anticancer activity of the studied compounds (3a–h) was explored with regards to two human breast cancer cell lines, namely the estrogen receptor positive (ER+) MCF-7 cells and the triple negative MDA-MB-231 cells (ER-, PR-, and HER-2/Neu-). Cells were continuously exposed to the test substances for 72 h, after which their viability was assessed by means of the MTT assay. Table 2 lists the determined IC50 values for the investigated substances and the reference drug, thalidomide. […] Additionally, the same test for all the compounds has been performed on nonmalignant breast epithelial cells (MCF-10A) to ascertain their potential cytotoxicity.
The four cell lines used in this work (MCF-7, MDA-MB-231, MCF-10A, and 3T3-L1) were obtained from the American Type Culture Collection (ATCC, Manassas, VA, USA). All cell lines were maintained at 37 °C in a humidified atmosphere of 95% air and 5% CO2 and periodically screened for contamination. MCF-7, human breast cancer cells estrogen receptor (ER)-positive, and human breast cancer triple negative MDA-MB231 were grown in DMEM-F12 medium containing 2 mmol/L L-glutamine, 1 mg/mL penicillin–streptomycin, and 5% newborn calf serum (NCS) or 5% fetal bovine serum (FBS), respectively. MCF-10A human mammary epithelial cells were cultured in DMEM/F12 medium, supplemented with 5% horse serum (HS) (Eurobio, Les Ullis, Cedex, France), 100 U/mL penicillin/streptomycin, […], 20 ng/mL hEGF (human epidermal growth factor), […], and […] (Sigma-Aldrich, Milano, Italy). BALB/3T3 murine fibroblast cells were cultured in DMEM high glucose supplemented with 10% bovine calf serum (BCS), 1% L-glutamine, and 100 U/mL penicillin/streptomycin.
Cell viability was evaluated by means of the 3-(4,5-dimethylthiazol-2-y1)-2,5-diphenyltetra zolium bromide (MTT, Sigma-Aldrich, Milan, Italy) assay. On 48-well plates, cells were seeded, and they were cultured in complete medium. Before being treated, cells were starved in serum-free medium for 24 h to allow cell cycle synchronization. Subsequently, cells were exposed to increasing doses of each compound for 72 h in phenol-red-free media supplemented with 1% serum before fresh MTT was added to each well (final concentration: 0.5 mg/mL). Cells were lysed with DMSO after 2 h of incubation at 37 °C, and optical density at 570 nm was then determined with a microplate reader. Using GraphPad Prism 9 software (GraphPad Inc., San Diego, CA, USA), the mean absorbance for each sample was expressed as a percentage over the control and plotted vs. drug concentrations to establish the IC50 values. The given standard deviations (SDs) are indicative of three separate tests carried out in triplicate.

The next experiment relates to Candida glabrata 15126. In words: Antifungal microdilution, C. glabrata ATCC 15126. It counts as cell-based. The conditions noted are these: Nakaseomyces glabratus, microdilution CLSI M27-A3, 48 h, 37 °C, read-out: MIC C.g. 15126. The procedure: In accordance with CLSI guidelines, compounds 3a–h were tested against a variety of fungal strains (Candida albicans 10231, Candida albicans 90028, Candida glabrata 15126, and Candida parapsilosis 22019) belonging to the ATCC collection. Amphotericin B was utilized as a reference drug. A similar trend of results, or even better than that obtained against bacteria, was assessed against fungal strains. […] Also, in this case, compound 3h emerged as the best of the series, with MICs of 16 μg/mL against Candida glabrata and Candida parapsilosis strains and 32 μg/mL against Candida albicans strains.
A microdilution technique described by the Clinical and Laboratory Standards Institute (CLSI, M27-A3) was used to assess the antifungal activity. The following fungal strains, belonging to the ATCC collection and available as freeze-dried discs, were used: C. albicans ATCC 10231, C. albicans ATCC 90028, C. glabrata ATCC 15126, and C. parapsilosis ATCC 22019. Stock solutions were prepared and preserved with purity as previously described for the antibacterial studies. Each yeast strain’s pre-cultures were made in Sabouraud broth (SAB) and allowed to grow until they stopped at 37 °C. By using a spectrophotometric technique (530 nm, range 0.12–0.15), the turbidity of the yeast stock suspension was calibrated to 0.5 McFarland Standard. Next, the standardized suspension was diluted first at 1:50 with SAB and then at 1:20 in the same medium to have […]. A total of 100 µL of inoculum was seeded into each well. As a control for growth, several wells containing only inoculated broth were prepared. The plates were incubated for 48 h at 37 °C, and the MIC values were calculated as the final well with no fungal growth. […] MIC values were observed based on the absence of fungal growth in the final well. The MICs were calculated by conducting the antifungal test three times in duplicate. As a control, amphotericin B was used.
On the technique in general: In broth dilution the organism is exposed to a series of concentrations in liquid medium.

Broadly, the IC50 is the point on the concentration scale where inhibition reaches its midpoint. A low value points to greater potency. Broadly, the MIC is the lowest concentration that inhibits growth of the organism. For `O=C1c2ccccc2C(=O)N1c1nc2ccc(C(F)(F)F)cc2s1` [3c, 2-[6-Trifluoromethyl-1,3-benzothiazol-2-yl]-1H-isoindole-1,3(2H)-dione], the “IC50 MCF-7” value with MCF-7 cells (72 h exposure) was “did not possess any activity”. This compound registered an IC50 in the experiment with MCF-7 cells of over 500 µM. Also, the MIC with Candida glabrata 15126 was found to be 64 µg/mL (≈ 184 µM).
In the experiment on MCF-7 cells, `Cc1ccc2nc(N3C(=O)c4ccccc4C3=O)sc2c1` [3d, 2-[6-Methyl-1,3-benzothiazol-2-yl]-1H-isoindole-1,3(2H)-dione] gave an IC50 of 66 ± 1.2 µM. For the same compound, the MIC with Candida glabrata 15126 is over 512 µg/mL.
In the case of `COc1ccc2nc(N3C(=O)c4ccccc4C3=O)sc2c1` [3e, 2-[6-Methoxy-1,3-benzothiazol-2-yl]-1H-isoindole-1,3(2H)-dione], the half-inhibitory concentration (IC50) in the experiment on MCF-7 cells turned out to be 223.1 ± 0.9 µM. The MIC in the experiment with Candida glabrata 15126 was determined as 64 µg/mL (≈ 206 µM).
Consider `O=C1c2ccccc2C(=O)N1c1nc2ccccc2s1` [3a, 2-(1,3-benzothiazol-2-yl)-1H-isoindole-1,3(2H)-dione], for which, in the experiment on MCF-7 cells, the midpoint of inhibition, the IC50, lay at 165.5 ± 1.1 µM. For the same compound, in the experiment with Candida glabrata 15126, the MIC is 32 µg/mL (≈ 114 µM).
Turning to `O=C1c2ccccc2C(=O)N1c1nc2ccc(Oc3ccccc3)cc2s1` [3h, 2-[6-Phenoxy-1,3-benzothiazol-2-yl]-1H-isoindole-1,3(2H)-dione], in the experiment on MCF-7 cells, half-maximal inhibition (IC50) required 26.2 ± 0.9 µM. For the same compound, the minimum inhibitory concentration (MIC) with Candida glabrata 15126 is 16 µg/mL (≈ 43 µM).
The corresponding values for `O=C1c2ccccc2C(=O)N1c1nc2ccc(F)cc2s1` [3b, 2-(6-Fluoro-1,3-benzothiazol-2-yl)-1H-isoindole-1,3(2H)-dione] are 91.5 ± 0.6 µM and 32 µg/mL (≈ 107 µM).
In the experiment on MCF-7 cells, `COc1cc2nc(N3C(=O)c4ccccc4C3=O)sc2cc1OC` [3f, 2-[5,6-Dimethoxy-1,3-benzothiazol-2-yl]-1H-isoindole-1,3(2H)-dione] returned an IC50 of 93 ± 1.4 µM. Also, in the experiment on Candida glabrata 15126, the minimum inhibitory concentration (MIC) worked out at 32 µg/mL (≈ 94 µM).
As to `O=C1c2ccccc2C(=O)N1c1nc2ccc(O)cc2s1` [3g, 2-[6-Hydroxy-1,3-benzothiazol-2-yl]-1H-isoindole-1,3(2H)-dione], 71.2 ± 0.7 µM corresponded to half-maximal inhibition in the experiment on MCF-7 cells (IC50). The MIC in the experiment on Candida glabrata 15126 was determined as 32 µg/mL (≈ 108 µM).
